Results as given in BigSolDB 2.1.

Cc1ccc(-c2ccccc2C#N)cc1
solubility (mole fraction)
Conditions	268.05 K	272.97 K	278.05 K	283.15 K	288.15 K	293.15 K	298.13 K	303.05 K
in ethanol	0.0142	0.0159	0.0168	0.0205	0.0284	0.041	0.0604	0.0958
in ethyl acetate	0.163	0.196	0.237	0.284	0.341	0.412	0.482	0.569
